The source of these data is patent US9181273B2, “Morpholine-spirocyclic piperidine amides as modulators of ion channels” (Vertex Pharmaceuticals Incorporated, priority 2011, dated 2015).

A word on the IC50: it is the point on the concentration scale where inhibition reaches its midpoint.

Sequence of human NaV subtype, like NaV 1.7 (Q15858 whole entry): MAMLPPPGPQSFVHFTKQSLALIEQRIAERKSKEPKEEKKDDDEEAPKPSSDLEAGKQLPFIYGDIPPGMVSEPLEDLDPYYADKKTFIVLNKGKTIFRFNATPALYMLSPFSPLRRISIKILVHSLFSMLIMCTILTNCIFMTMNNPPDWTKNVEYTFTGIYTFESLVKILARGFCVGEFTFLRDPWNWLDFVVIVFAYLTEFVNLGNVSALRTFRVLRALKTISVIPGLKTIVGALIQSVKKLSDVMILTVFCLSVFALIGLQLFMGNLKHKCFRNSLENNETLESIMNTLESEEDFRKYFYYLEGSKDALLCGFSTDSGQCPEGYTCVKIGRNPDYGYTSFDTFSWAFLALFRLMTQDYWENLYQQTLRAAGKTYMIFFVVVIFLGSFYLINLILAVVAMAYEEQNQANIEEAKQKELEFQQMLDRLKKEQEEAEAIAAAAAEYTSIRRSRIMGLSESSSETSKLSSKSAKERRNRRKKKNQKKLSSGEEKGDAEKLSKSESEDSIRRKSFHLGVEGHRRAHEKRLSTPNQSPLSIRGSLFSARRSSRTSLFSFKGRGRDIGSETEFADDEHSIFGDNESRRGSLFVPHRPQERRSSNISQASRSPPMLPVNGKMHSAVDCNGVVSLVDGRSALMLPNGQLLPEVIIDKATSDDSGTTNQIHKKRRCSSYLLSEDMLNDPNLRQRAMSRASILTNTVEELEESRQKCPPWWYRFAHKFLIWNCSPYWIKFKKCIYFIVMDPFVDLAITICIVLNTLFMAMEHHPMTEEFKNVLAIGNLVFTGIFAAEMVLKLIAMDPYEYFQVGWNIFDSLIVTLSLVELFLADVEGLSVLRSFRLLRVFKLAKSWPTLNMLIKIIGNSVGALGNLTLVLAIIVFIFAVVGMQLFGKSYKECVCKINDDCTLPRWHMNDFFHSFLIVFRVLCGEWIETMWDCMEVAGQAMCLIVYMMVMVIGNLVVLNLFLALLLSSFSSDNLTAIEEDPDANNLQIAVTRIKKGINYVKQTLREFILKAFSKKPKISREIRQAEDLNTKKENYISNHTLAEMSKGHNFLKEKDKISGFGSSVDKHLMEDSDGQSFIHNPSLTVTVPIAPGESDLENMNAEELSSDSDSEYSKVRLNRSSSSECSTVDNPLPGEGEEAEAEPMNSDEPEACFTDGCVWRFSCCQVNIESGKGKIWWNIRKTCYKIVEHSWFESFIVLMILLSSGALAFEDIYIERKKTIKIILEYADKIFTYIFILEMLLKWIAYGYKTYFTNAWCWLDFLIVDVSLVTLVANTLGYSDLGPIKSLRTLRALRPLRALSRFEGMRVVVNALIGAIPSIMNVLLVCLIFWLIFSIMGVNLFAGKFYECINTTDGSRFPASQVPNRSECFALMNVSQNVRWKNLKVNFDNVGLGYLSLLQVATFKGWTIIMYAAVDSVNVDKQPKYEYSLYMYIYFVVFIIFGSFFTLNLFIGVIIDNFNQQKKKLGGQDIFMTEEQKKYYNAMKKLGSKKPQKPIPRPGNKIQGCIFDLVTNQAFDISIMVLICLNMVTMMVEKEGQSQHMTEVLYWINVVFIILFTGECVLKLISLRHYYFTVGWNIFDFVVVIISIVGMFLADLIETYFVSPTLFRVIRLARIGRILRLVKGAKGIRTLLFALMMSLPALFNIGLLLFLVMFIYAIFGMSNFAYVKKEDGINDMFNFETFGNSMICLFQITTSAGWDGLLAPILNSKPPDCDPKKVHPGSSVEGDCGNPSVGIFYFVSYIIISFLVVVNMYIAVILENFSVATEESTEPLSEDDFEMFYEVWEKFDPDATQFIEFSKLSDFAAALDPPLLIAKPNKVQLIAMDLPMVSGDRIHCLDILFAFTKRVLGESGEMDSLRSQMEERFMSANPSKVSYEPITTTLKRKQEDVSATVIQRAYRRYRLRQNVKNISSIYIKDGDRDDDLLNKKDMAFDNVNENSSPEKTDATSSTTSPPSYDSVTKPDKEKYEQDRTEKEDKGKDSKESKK

One test concerns the target human NaV subtype, like NaV 1.7 (Homo sapiens, UniProt Q15858). The test can be described thus: E-VIPR optical membrane potential assay with electrical stimulation.
Settings: not given
It is filed as cell-based. The text has this:
Sodium channels are voltage-dependent proteins that can be activated by inducing membrane voltage changes by applying electric fields. […] The instrument comprises a microtiter plate handler, an optical system for exciting the coumarin dye while simultaneously recording the coumarin and oxonol emissions, a waveform generator, a current- or voltage-controlled amplifier, and a device for inserting electrodes in well. Under integrated computer control, this instrument passes user-programmed electrical stimulus protocols to cells within the wells of the microtiter plate.
24 hours before the assay on E-VIPR, HEK cells expressing human NaV subtype, like NaV 1.7, are seeded in 384-well poly-lysine coated plates at 15,000-20,000 cells per well. Other subtypes are performed in an analogous mode in a cell line expressing the NaV of interest. […] Cells are grown in vented cap flasks, in 90% humidity and 10% CO2, to 100% confluence. They are usually split by trypsinization 1:10 or 1:20, depending on scheduling needs, and grown for 2-3 days before the next split.
To make the solution Add volume of 10% Pluronic F127 stock equal to volumes of CC2-DMPE+DiSBAC6(3). The order of preparation is first mix Pluronic and CC2-DMPE, then add DiSBAC6(3) while vortexing, then add Bath1+β-Cyclodextrin.
1) Pre-spot compounds (in neat DMSO) into compound plates. […] Final compound plate volume will be 80 μL (80-fold intermediate dilution from 1 μL DMSO spot; 160-fold final dilution after transfer to cell plate).
2) Prepare Hexyl Dye Solution.
3) Prepare cell plates. On the day of the assay, medium is aspirated and cells are washed three times with 100 μL of Bath1 Solution, maintaining 25 μL residual volume in each well.
4) Dispense 25 μL per well of Hexyl Dye Solution into cell plates. Incubate for 20-35 minutes at room temp or ambient conditions.
5) Dispense 80 μL per well of Bath1 into compound plates. Acid Yellow-17 (1 mM) is added and Potassium Chloride can be altered from 4.5 to 20 mM depending on the NaV subtype and assay sensitivity.
6) Wash cell plates three times with 100 μL per well of Bath1, leaving 25 μL of residual volume. Then transfer 25 uL per well from Compound Plates to Cell Plates. Incubate for 20-35 minutes at room temp/ambient condition
7) Read Plate on E-VIPR. Use the current-controlled amplifier to deliver stimulation wave pulses for typically 9 seconds and a scan rate of 400 Hz. A pre-stimulus recording is performed for 0.5 seconds to obtain the un-stimulated intensities baseline. The stimulatory waveform is applied for 9 seconds followed by 0.5 seconds of post-stimulation recording to examine the relaxation to the resting state. The stimulatory waveform of the electrical stimulation is specific for each cell type and can vary the magnitude, duration and frequency of the applied current to provide an optimal assay signal.
Data are analyzed and reported as normalized ratios of background-subtracted emission intensities measured in the 460 nm and 580 nm channels. Background intensities are then subtracted from each assay channel. Background intensities are obtained by measuring the emission intensities during the same time periods from identically treated assay wells in which there are no cells. The response as a function of time is then reported as the ratios obtained using the following formula: […]
The data is further reduced by calculating the initial (Ri) and final (Rf) ratios. These are the average ratio values during part or all of the pre-stimulation period, and during sample points during the stimulation period. The response to the stimulus R=Rf/Ri is then calculated and reported as a function of time.
Control responses are obtained by performing assays in the presence of a compound with the desired properties (positive control), such as tetracaine, and in the absence of pharmacological agents (negative control). Responses to the negative (N) and positive (P) controls are calculated as above. The compound antagonist activity A is defined as: […]
`COc1cc(C(=O)N2CCC3(CC2)CN(CC(F)F)CC(c2ccccn2)O3)ccc1OC(C)C` (stereo not drawn) [Compound 3]: the IC50 was < 2000 nM.

Still in this test, the particulars now being: active against one or more sodium channels; assay and NaV subtype not specified for Table 3; read-out: IC50 Binned Activity Data.
For `CCC1CN(c2ncccn2)CC2(CCN(C(=O)c3ccc(C(O)(CC)CC)c(C)c3)CC2)O1` (stereo not drawn) [Compound 1], the IC50 fell in the range of 2000 to 5000 nM.
On the same count and under the same terms, with `Cc1cc(C(=O)N2CCC3(CC2)CN(Cc2ccccc2)CC(CCO)O3)ccc1OC(C)C` (stereo not drawn) [Compound 2] the figure was > 5000 nM; with `CC(C)Oc1ccc(C(=O)N2CCC3(CC2)CN(CC(F)F)CC(c2ccc(F)cc2)O3)cc1CO` (stereo not drawn) [Compound 4], 2000 to 5000 nM; with `COCC1CN(C2CCC(C)CC2)CC2(CCN(C(=O)c3ccc(OC(C)C)c(C)c3)CC2)O1` (stereo not drawn) [Compound 5], < 2000 nM.
`Cc1cc(C(=O)N2CCC3(CC2)CN(c2ncccn2)CCO3)ccc1OC(C)C` [Compound 6]: the half-inhibitory concentration (IC50) lay in the range of 2000 to 5000 nM.
As for `Cc1cc(C(=O)N2CCC3(CC2)CN(C)CC(c2ccccc2)O3)ccc1OC(C)C` (stereo not drawn) [Compound 7], the IC50 is < 2000 nM.
Still for that read-out and setting: in the case of `COCC1CN(c2ncccn2)CC2(CCN(C(=O)c3ccc(S(=O)(=O)C(F)F)cc3)CC2)O1` (stereo not drawn) [Compound 8] it was 2000 to 5000 nM.
Same read-out and setting: in the case of `CCN1CC2(CCN(C(=O)c3ccc(OC(C)C)c(C)c3)CC2)OC(c2ccccc2)C1=O` (stereo not drawn) [Compound 9] it was 2000 to 5000 nM; in that of `CCN1CC2(CCN(C(=O)c3ccc(OC(C)C)c(C)c3)CC2)OCC1c1ccccc1` (stereo not drawn) [Compound 10], < 2000 nM.
Still for that read-out and setting: in the case of `Cc1cc(C(=O)N2CCC3(CC2)CN(CC(F)F)CC(c2ccnn2C)O3)ccc1OC(C)C` (stereo not drawn) [Compound 11] it was < 2000 nM; in that of `CC(C)(C)S(=O)(=O)c1ccc(C(=O)N2CCC3(CC2)CN(CC(F)(F)F)CC(c2ccccc2)O3)cc1` (stereo not drawn) [Compound 12], < 2000 nM.
For the molecule `CC(C)(C)Oc1ccc(C(=O)N2CCC3(CC2)CN(CC(F)(F)F)CC(c2ccccc2)O3)nc1` (stereo not drawn) [Compound 13], the IC50 is < 2000 nM.
Same read-out and setting: with `COCC1CN(Cc2ccccn2)CC2(CCN(C(=O)c3ccc(OC(C)C)c(C)c3)CC2)O1` (stereo not drawn) [Compound 14] the figure was > 5000 nM; with `COCC1CN(c2ncccn2)CC2(CCN(C(=O)c3ccc(OC(C)C)c(CO)c3)CC2)O1` (stereo not drawn) [Compound 15], > 5000 nM; with `COCC1CN(c2cccc(C)n2)CC2(CCN(C(=O)c3ccc(OC(C)C)c(C)c3)CC2)O1` (stereo not drawn) [Compound 16], < 2000 nM.
For `CCC1CN(c2ccccn2)CC2(CCN(C(=O)c3ccc(C4(O)CCCC4)c(F)c3)CC2)O1` (stereo not drawn) [Compound 17], the IC50 was < 2000 nM.
The same measure, in the same setting: with `CCC1CN(C(C)(C)C)CC2(CCN(C(=O)c3ccc(OC(C)C)c(C)c3)CC2)O1` (stereo not drawn) [Compound 18] the figure was < 2000 nM.
`COCC1CN(c2ncccn2)CC2(CCN(C(=O)c3ccc(OC(C)C)c(F)c3)CC2)O1` (stereo not drawn) [Compound 19]: the IC50 is < 2000 nM.
Still for that read-out and setting: with `CCn1nccc1C1CN(CC(F)F)CC2(CCN(C(=O)c3ccc(OC(C)C)c(C)c3)CC2)O1` (stereo not drawn) [Compound 20] the figure was < 2000 nM; with `Cc1cc(C(=O)N2CCC3(CC2)CN(CC(F)F)CC(c2cc[nH]n2)O3)ccc1OC(C)C` (stereo not drawn) [Compound 21], < 2000 nM.
Still for that read-out and setting: in the case of `CCN1CC(c2ccccc2)OC2(CCN(C(=O)c3ccc(OC(C)C)c(C)c3)CC2)C1` (stereo not drawn) [Compound 22] it was < 2000 nM.
For the molecule `COCC1CN(CC#N)CC2(CCN(C(=O)c3ccc(OC(C)C)c(C)c3)CC2)O1` (stereo not drawn) [Compound 23], the IC50 was > 5000 nM.
With `Cc1cc(C(=O)N2CCC3(CC2)CN(CC(C)(C)O)CC(c2ccccc2)O3)ccc1OC(C)C` (stereo not drawn) [Compound 24], the IC50 is < 2000 nM.
The same measure, in the same setting: with `Cc1cc(C(=O)N2CCC3(CC2)CN(CCO)CC(c2ccccc2)O3)ccc1OC(C)C` (stereo not drawn) [Compound 25] the figure was 2000 to 5000 nM; with `Cc1cc(C2CN(CC(F)(F)F)CC3(CCN(C(=O)c4ccc(OC(C)C)c(C)c4)CC3)O2)n[nH]1` (stereo not drawn) [Compound 26], 2000 to 5000 nM; with `Cc1cc(C(=O)N2CCC3(CC2)CN(CC(F)F)CC(c2ccc(F)cc2)O3)ccc1OC(C)C` (stereo not drawn) [Compound 27], < 2000 nM.
Still for that read-out and setting: in the case of `CCN1CC(C)(C)OC2(CCN(C(=O)c3ccc(OC(C)C)c(C)c3)CC2)C1` [Compound 28] it was > 5000 nM; in that of `Cc1cc(C(=O)N2CCC3(CC2)CN(CC(C)C)CC(c2ccccc2)O3)ccc1OC(C)C` (stereo not drawn) [Compound 29], < 2000 nM; in that of `CC#CCN1CC(CC)OC2(CCN(C(=O)c3ccc(OC)c(C(F)(F)F)c3)CC2)C1` (stereo not drawn) [Compound 30], > 5000 nM.
As to `COCC1CN(c2ccncc2)CC2(CCN(C(=O)c3ccc(OC(C)C)c(C)c3)CC2)O1` (stereo not drawn) [Compound 31], the IC50 was > 5000 nM.
For the molecule `COCC1CN(C)CC2(CCN(C(=O)c3ccc(OC(C)C)c(C)c3)CC2)O1` (stereo not drawn) [Compound 32], the IC50 is > 5000 nM.
Still for that read-out and setting: with `Cc1cc(C(=O)N2CCC3(CC2)CN(CC(F)F)CC(c2ccccn2)O3)ccc1OC(C)C` (stereo not drawn) [Compound 33] the figure was < 2000 nM.
Same read-out and setting: in the case of `CCC1CN(CC)CC2(CCN(C(=O)c3ccc(OC(C)C)c(C)c3)CC2)O1` (stereo not drawn) [Compound 34] it was > 5000 nM.
Still for that read-out and setting: in the case of `Cc1cc(C(=O)N2CCC3(CC2)CN(CC(F)F)CC(c2nccn2C)O3)ccc1OC(C)C` (stereo not drawn) [Compound 35] it was > 5000 nM; in that of `COC(=O)c1ccnc(N2CC(CO)OC3(CCN(C(=O)c4ccc(OC(C)C)c(C)c4)CC3)C2)n1` (stereo not drawn) [Compound 36], > 5000 nM.
For `Cc1cccc(C2CN(CC(F)F)CC3(CCN(C(=O)c4ccc(OC(C)C)c(C)c4)CC3)O2)n1` (stereo not drawn) [Compound 37], the IC50 was < 2000 nM.
Same read-out and setting: with `CC(C)Oc1ccc(C(=O)N2CCC3(CC2)CN(CC(F)(F)F)CC(c2cc[nH]n2)O3)cc1F` (stereo not drawn) [Compound 38] the figure was 2000 to 5000 nM; with `CC(C)(O)Cc1ccc(C(=O)N2CCC3(CC2)CN(CC(F)(F)F)CC(c2ccccc2)O3)cc1F` (stereo not drawn) [Compound 39], 2000 to 5000 nM; with `CCC1COC2(CCN(C(=O)c3ccc(OC(C)C)c(C)c3)CC2)CN1CC` (stereo not drawn) [Compound 40], > 5000 nM.
Turning to `CCC1CN(c2ccccn2)CC2(CCN(C(=O)c3ccc(C(C)(C)O)c(F)c3)CC2)O1` (stereo not drawn) [Compound 41], the IC50 is < 2000 nM.
The same measure, in the same setting: with `Cc1nc(C(=O)N2CCC3(CC2)CN(CC(F)(F)F)CC(c2ccccc2)O3)ccc1OC(C)C` (stereo not drawn) [Compound 42] the figure was < 2000 nM; with `CCN1CC2(CCN(C(=O)c3ccc(OC(C)C)c(OC)c3)CC2)OCC1c1ccccc1` (stereo not drawn) [Compound 43], 2000 to 5000 nM; with `Cc1cc(C(=O)N2CCC3(CC2)CN(CC(F)F)CC(c2ccccc2F)O3)ccc1OC(C)C` (stereo not drawn) [Compound 44], < 2000 nM.
For the molecule `CC(C)Oc1ccc(C(=O)N2CCC3(CC2)CN(CC(F)F)CC(c2ccccc2F)O3)cc1F` (stereo not drawn) [Compound 45], the IC50 was < 2000 nM.
Same read-out and setting: in the case of `CCC1CN(CC2CC2)CC2(CCN(C(=O)c3ccc(OC(C)C)c(C)c3)CC2)O1` (stereo not drawn) [Compound 46] it was < 2000 nM; in that of `COCC1CN(CC2CCC2)CC2(CCN(C(=O)c3ccc(OC(C)C)c(C)c3)CC2)O1` (stereo not drawn) [Compound 47], < 2000 nM.
The same measure, in the same setting: in the case of `CCC(CC)N1CC(COC)OC2(CCN(C(=O)c3ccc(OC(C)C)c(C)c3)CC2)C1` (stereo not drawn) [Compound 48] it was < 2000 nM; in that of `Cc1cnc(C2CN(C(C)(C)C)CC3(CCN(C(=O)c4ccc(OC(C)C)c(C)c4)CC3)O2)o1` (stereo not drawn) [Compound 49], < 2000 nM.
In the case of `CCC1CN(c2ncccn2)CC2(CCN(C(=O)c3ccc(C4(O)CCCC4)c(C)c3)CC2)O1` (stereo not drawn) [Compound 50], the IC50 was < 2000 nM.
Still for that read-out and setting: with `Cc1cc(C(=O)N2CCC3(CC2)CN(c2ncccn2)C(C)(C)CO3)ccc1OC(C)C` [Compound 51] the figure was > 5000 nM.
